ChEMBL document CHEMBL6103661, “Identification of Phosphodiesterase-7 Inhibitors with Spiro[[1,3]oxazolo[5,4-f]quinazoline-9,1'-cyclohexan]-7-one Scaffold for the Treatment of Chronic Fatigue” (ACS Med Chem Lett, 2025)
pIC50: −log10 of the molar value.

Assays:
Soleus muscle = test: Protection against 12.5 mM KCl-induced loss of contractile force in Sprague-Dawley rat soleus muscle assessed as mean residual contractile force at 1 uM pretreated for 10 mins followed by KCl stimulation at 5 mins interval for 30 mins and measured in presence of salbutamol by isometric force transducer method relative to control; type: functional; settings: time 40 min
[1] = target: High affinity 3',5'-cyclic-AMP phosphodiesterase 7A (Homo sapiens, UniProt Q13946); test: Inhibition of human recombinant PDE7A expressed in Sf9 insect cells using FAM-cAMP as substrate preincubated for 15 mins followed by substrate addition and measured after 30 mins by spectrofluorimetry
Sequence of High affinity 3',5'-cyclic-AMP phosphodiesterase 7A (Q13946 whole entry): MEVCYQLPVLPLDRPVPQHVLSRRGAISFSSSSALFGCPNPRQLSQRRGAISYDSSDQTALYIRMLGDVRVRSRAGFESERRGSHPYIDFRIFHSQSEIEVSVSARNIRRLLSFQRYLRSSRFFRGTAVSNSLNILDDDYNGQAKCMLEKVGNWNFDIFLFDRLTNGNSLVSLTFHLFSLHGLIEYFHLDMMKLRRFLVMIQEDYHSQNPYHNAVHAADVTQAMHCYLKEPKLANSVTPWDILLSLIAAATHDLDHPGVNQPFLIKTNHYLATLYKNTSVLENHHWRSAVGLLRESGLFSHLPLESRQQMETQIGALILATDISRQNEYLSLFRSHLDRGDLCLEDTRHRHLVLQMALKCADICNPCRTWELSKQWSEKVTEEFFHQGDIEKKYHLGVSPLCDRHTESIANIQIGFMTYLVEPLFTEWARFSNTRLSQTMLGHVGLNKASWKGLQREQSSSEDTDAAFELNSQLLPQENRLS

[2] = target: 3',5'-cyclic-AMP phosphodiesterase 7B (Homo sapiens, UniProt Q9NP56); test: Inhibition of human recombinant PDE7B expressed in Sf9 insect cells using FAM-cAMP as substrate preincubated for 15 mins followed by substrate addition and measured after 30 mins by spectrofluorimetry
Sequence of 3',5'-cyclic-AMP phosphodiesterase 7B (Q9NP56 whole entry): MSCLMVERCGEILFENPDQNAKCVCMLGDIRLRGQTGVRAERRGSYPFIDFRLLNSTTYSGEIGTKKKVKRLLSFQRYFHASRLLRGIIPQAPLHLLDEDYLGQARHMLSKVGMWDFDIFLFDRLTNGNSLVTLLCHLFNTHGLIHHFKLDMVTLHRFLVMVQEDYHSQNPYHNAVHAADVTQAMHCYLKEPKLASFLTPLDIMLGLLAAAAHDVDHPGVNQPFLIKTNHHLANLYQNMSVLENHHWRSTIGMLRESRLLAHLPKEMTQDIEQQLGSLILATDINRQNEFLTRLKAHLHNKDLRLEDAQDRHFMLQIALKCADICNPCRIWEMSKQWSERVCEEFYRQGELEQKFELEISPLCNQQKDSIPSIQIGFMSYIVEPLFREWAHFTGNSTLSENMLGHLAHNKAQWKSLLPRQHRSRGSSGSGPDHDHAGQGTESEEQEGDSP

Row | SMILES | Activity (Soleus muscle) [%] | pIC50 [1] | pIC50 [2]
1 | CN(C)C1CCN(C(=O)c2cc3cc(Cl)c4c(c3o2)C2(CCCCC2)NC(=O)N4)CC1 | 73.7 | 7.55 | 7.24
2 | CN(C)C(=O)CNCc1nc2cc(Cl)c3c(c2o1)C1(CCCCC1)NC(=O)N3 | 60.5 | 8.25 | –
